Test results from PubChem BioAssay (NCI).
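Each compound was tested at five concentrations against cells in 96-well plates for 48 hours. The concentration for full growth arrest is given as TGI.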

How the values were obtained:
Test in all cases: inhibition of tumour cell growth, NCI panel, 48 h
CCRF-CEM leukemia = tested on: CCRF-CEM leukemia
HOP-92 NSCLC = tested on: HOP-92 NSCLC
HL-60(TB) leukemia = tested on: HL-60(TB) leukemia
U251 CNS = tested on: U251 CNS
SF-539 CNS = tested on: SF-539 CNS
MDA-MB-435 = tested on: MDA-MB-435
SNB-19 CNS = tested on: SNB-19 CNS
HOP-62 NSCLC = tested on: HOP-62 NSCLC
OVCAR-3 ovarian = tested on: OVCAR-3 ovarian
HT29 colon = tested on: HT29 colon
UACC-62 melanoma = tested on: UACC-62 melanoma
CAKI-1 renal = tested on: CAKI-1 renal
RXF 393 renal = tested on: RXF 393 renal
LOX IMVI melanoma = tested on: LOX IMVI melanoma
SNB-75 CNS = tested on: SNB-75 CNS
IGROV1 ovarian = tested on: IGROV1 ovarian
KM12 colon = tested on: KM12 colon
COLO 205 colon = tested on: COLO 205 colon
PC-3 prostate = tested on: PC-3 prostate
DU-145 prostate = tested on: DU-145 prostate
NCI-H522 lung = tested on: NCI-H522 lung
A549 NSCLC = tested on: A549 NSCLC
786-0 renal = tested on: 786-0 renal
MDA-MB-231 breast = tested on: MDA-MB-231 breast
SK-MEL-5 melanoma = tested on: SK-MEL-5 melanoma
EKVX NSCLC = tested on: EKVX NSCLC
SF-268 CNS = tested on: SF-268 CNS
K-562 leukemia = tested on: K-562 leukemia
NCI/ADR-RES ovarian = tested on: NCI/ADR-RES ovarian
SN12C renal = tested on: SN12C renal
NCI-H23 lung = tested on: NCI-H23 lung
SF-295 CNS = tested on: SF-295 CNS
MALME-3M melanoma = tested on: MALME-3M melanoma
SK-OV-3 ovarian = tested on: SK-OV-3 ovarian
RPMI-8226 leukemia = tested on: RPMI-8226 leukemia
T-47D breast = tested on: T-47D breast
HS 578T breast = tested on: HS 578T breast
TK-10 renal = tested on: TK-10 renal
SW-620 colon = tested on: SW-620 colon
SK-MEL-2 melanoma = tested on: SK-MEL-2 melanoma
SR leukemia = tested on: SR leukemia
A498 renal = tested on: A498 renal
M14 melanoma = tested on: M14 melanoma
OVCAR-4 ovarian = tested on: OVCAR-4 ovarian
NCI-H460 lung = tested on: NCI-H460 lung
NCI-H226 lung = tested on: NCI-H226 lung
HCT-116 colon = tested on: HCT-116 colon
OVCAR-5 ovarian = tested on: OVCAR-5 ovarian
UACC-257 melanoma = tested on: UACC-257 melanoma
UO-31 renal = tested on: UO-31 renal
MCF7 breast = tested on: MCF7 breast
MOLT-4 leukemia = tested on: MOLT-4 leukemia
BT-549 breast = tested on: BT-549 breast
HCT-15 colon = tested on: HCT-15 colon
OVCAR-8 ovarian = tested on: OVCAR-8 ovarian
SK-MEL-28 melanoma = tested on: SK-MEL-28 melanoma
ACHN renal = tested on: ACHN renal
HCC-2998 colon = tested on: HCC-2998 colon

## CCCCCCN1C(=O)CC(=O)N(CCCCCC)S1(=O)=O
CCRF-CEM leukemia
  TGI: 40.9 µM
HOP-92 NSCLC
  TGI: 25.6 µM
HL-60(TB) leukemia
  TGI: 48.9 µM
U251 CNS
  TGI: 33.1 µM
SF-539 CNS
  TGI: 41.9 µM
MDA-MB-435
  TGI: 53.5 µM
SNB-19 CNS
  TGI: > 100 µM
HOP-62 NSCLC
  TGI: 35.9 µM
OVCAR-3 ovarian
  TGI: 52.1 µM
HT29 colon
  TGI: 46.8 µM
UACC-62 melanoma
  TGI: 34.3 µM
CAKI-1 renal
  TGI: 50.7 µM
RXF 393 renal
  TGI: 34.1 µM
LOX IMVI melanoma
  TGI: 36 µM
SNB-75 CNS
  TGI: 32.7 µM
IGROV1 ovarian
  TGI: 25.9 µM
KM12 colon
  TGI: > 100 µM
COLO 205 colon
  TGI: 34.6 µM
PC-3 prostate
  TGI: 60 µM
DU-145 prostate
  TGI: > 100 µM
NCI-H522 lung
  TGI: 27.4 µM
A549 NSCLC
  TGI: > 100 µM
786-0 renal
  TGI: 35.8 µM
MDA-MB-231 breast
  TGI: 33.2 µM
SK-MEL-5 melanoma
  TGI: 44.2 µM
EKVX NSCLC
  TGI: 41 µM
SF-268 CNS
  TGI: 36.9 µM
K-562 leukemia
  TGI: > 100 µM
NCI/ADR-RES ovarian
  TGI: 49.5 µM
SN12C renal
  TGI: 37.1 µM
NCI-H23 lung
  TGI: 75.2 µM
SF-295 CNS
  TGI: 35.9 µM
MALME-3M melanoma
  TGI: 72.8 µM
SK-OV-3 ovarian
  TGI: 51.5 µM
RPMI-8226 leukemia
  TGI: 47.2 µM
T-47D breast
  TGI: > 100 µM
HS 578T breast
  TGI: 45.9 µM
TK-10 renal
  TGI: 41.6 µM
SW-620 colon
  TGI: 41.9 µM
SK-MEL-2 melanoma
  TGI: 28.5 µM
SR leukemia
  TGI: 61 µM
A498 renal
  TGI: 27.8 µM
M14 melanoma
  TGI: > 100 µM
OVCAR-4 ovarian
  TGI: 41 µM
NCI-H460 lung
  TGI: > 100 µM
NCI-H226 lung
  TGI: > 100 µM
HCT-116 colon
  TGI: > 100 µM
OVCAR-5 ovarian
  TGI: 41.1 µM
UACC-257 melanoma
  TGI: > 100 µM
UO-31 renal
  TGI: 3.46 µM
MCF7 breast
  TGI: > 100 µM
MOLT-4 leukemia
  TGI: 51.6 µM

## O=[N+]([O-])/C(C(Cl)=C(Cl)Cl)=C1\NCCS1
CCRF-CEM leukemia
  TGI: 46.2 µM
HL-60(TB) leukemia
  TGI: 48.3 µM
U251 CNS
  TGI: > 100 µM
SF-539 CNS
  TGI: > 100 µM
MDA-MB-435
  TGI: > 100 µM
SNB-19 CNS
  TGI: > 100 µM
HOP-62 NSCLC
  TGI: > 100 µM
BT-549 breast
  TGI: > 100 µM
OVCAR-3 ovarian
  TGI: > 100 µM
HT29 colon
  TGI: > 100 µM
UACC-62 melanoma
  TGI: > 100 µM
CAKI-1 renal
  TGI: > 100 µM
RXF 393 renal
  TGI: 58.8 µM
LOX IMVI melanoma
  TGI: 44.1 µM
HCT-15 colon
  TGI: > 100 µM
IGROV1 ovarian
  TGI: > 100 µM
OVCAR-8 ovarian
  TGI: > 100 µM
KM12 colon
  TGI: > 100 µM
COLO 205 colon
  TGI: > 100 µM
PC-3 prostate
  TGI: > 100 µM
DU-145 prostate
  TGI: > 100 µM
A549 NSCLC
  TGI: > 100 µM
SK-MEL-28 melanoma
  TGI: > 100 µM
786-0 renal
  TGI: > 100 µM
ACHN renal
  TGI: > 100 µM
MDA-MB-231 breast
  TGI: > 100 µM
SK-MEL-5 melanoma
  TGI: > 100 µM
EKVX NSCLC
  TGI: > 100 µM
SF-268 CNS
  TGI: > 100 µM
K-562 leukemia
  TGI: 41.4 µM
NCI/ADR-RES ovarian
  TGI: > 100 µM
SN12C renal
  TGI: > 100 µM
HCC-2998 colon
  TGI: > 100 µM
NCI-H23 lung
  TGI: > 100 µM
SF-295 CNS
  TGI: > 100 µM
MALME-3M melanoma
  TGI: 92.6 µM
SK-OV-3 ovarian
  TGI: > 100 µM
RPMI-8226 leukemia
  TGI: 54.5 µM
HS 578T breast
  TGI: > 100 µM
TK-10 renal
  TGI: > 100 µM
SW-620 colon
  TGI: > 100 µM
SR leukemia
  TGI: 46.4 µM
A498 renal
  TGI: > 100 µM
M14 melanoma
  TGI: > 100 µM
OVCAR-4 ovarian
  TGI: > 100 µM
NCI-H460 lung
  TGI: > 100 µM
NCI-H226 lung
  TGI: > 100 µM
HCT-116 colon
  TGI: > 100 µM
OVCAR-5 ovarian
  TGI: > 100 µM
UACC-257 melanoma
  TGI: > 100 µM
UO-31 renal
  TGI: > 100 µM
MCF7 breast
  TGI: > 100 µM
MOLT-4 leukemia
  TGI: 62.4 µM
